Reference: the NIST ThermoML archive (doi:10.1016/j.tca.2005.06.043)
Numbers after ± are expanded uncertainties.

Assays:
[1] = Calculated from knudsen effusion weight loss
[2] = molar enthalpy of vaporization or sublimation; conditions: 303 K; Crystal 2; Static calorimetry

Row | Compound | vapor or sublimation pressure ([1]; 318.02 K, Crystal) | vapor or sublimation pressure ([1]; 322.7 K, Crystal) | vapor or sublimation pressure ([1]; 322.99 K, Crystal) | vapor or sublimation pressure ([1]; 327.9 K, Crystal) | vapor or sublimation pressure ([1]; 332.6 K, Crystal) | molar enthalpy [2] | vapor or sublimation pressure ([1]; 288.36 K, Crystal 2) | vapor or sublimation pressure ([1]; 293.31 K, Crystal 2) | vapor or sublimation pressure ([1]; 298.28 K, Crystal 2) | vapor or sublimation pressure ([1]; 303.22 K, Crystal 2) | vapor or sublimation pressure ([1]; 308.19 K, Crystal 2) | vapor or sublimation pressure ([1]; 313.16 K, Crystal 1) | vapor or sublimation pressure ([1]; 314.21 K, Crystal 1) | vapor or sublimation pressure ([1]; 314.65 K, Crystal 1) | vapor or sublimation pressure ([1]; 315.63 K, Crystal 1) | vapor or sublimation pressure ([1]; 316.65 K, Crystal 1) | vapor or sublimation pressure ([1]; 318.12 K, Crystal 1) | vapor or sublimation pressure ([1]; 320.59 K, Crystal 1) | vapor or sublimation pressure ([1]; 323.03 K, Crystal 1)
1 | O=C(O)c1ccccc1 [benzoic acid] | 0.001022 ± 8.9e-05 kPa | 0.001693 ± 0.00016 kPa | 0.001744 ± 0.00016 kPa | 0.00289 ± 0.00029 kPa | 0.004567 ± 0.00049 kPa | – | – | – | – | – | – | – | – | – | – | – | – | – | –
2 | BrC12CC3CC(CC(C3)C1)C2 [1-bromotricyclo[3.3.1.1(3,7)]decane] | – | – | – | – | – | 71.77 ± 0.63 kJ/mol | 0.001603 ± 0.00015 kPa | 0.002687 ± 0.00027 kPa | 0.004279 ± 0.00045 kPa | 0.006896 ± 0.00077 kPa | 0.0111 ± 0.0013 kPa | 0.0169 ± 0.0021 kPa | 0.01766 ± 0.0022 kPa | 0.01847 ± 0.0023 kPa | 0.01952 ± 0.0025 kPa | 0.0215 ± 0.0028 kPa | 0.02411 ± 0.0032 kPa | 0.02925 ± 0.0039 kPa | 0.03472 ± 0.0048 kPa
